Test results from patent publication US10683329B2, “Dual-site BACE1 inhibitors” (priority 2014, dated 2020).
Where a SMILES comes first, the peptide text is derived from it. [ ]: non-standard residue; d: D form. The star is where a group is joined. Succinyl(4-O-cholesteryl) = CC(C)CCC[C@@H](C)[C@H]1CC[C@H]2[C@@H]3CC=C4C[C@@H](OC(=O)CCC(=O)*)CC[C@]4(C)[C@H]3CC[C@]12C; Sta = CC(C)C[C@H](N)[C@@H](O)CC(=O)O; PEG4 = NCCOCCOCCOCCOCCC(=O)O

These molecules were tested against T1, BACE1 (Homo sapiens, UniProt P56817) (assay: Cellular Aβ-lowering assay (Aβ40 ELISA of culture supernatant)). Details: Aβ40 in supernatant of human HEK293 cells stably transfected with human APP wt (APP695); 18-20 hrs incubation; read-out: IC 50.
T1 construct: Human HEK293 cells which are stably transfected with a vector expressing a cDNA of the human APP wt gene (APP695); endogenous in cells; host or cells: HEK293 (human), stably transfected with human APP695 wt
T1 sequence (P56817 46-501): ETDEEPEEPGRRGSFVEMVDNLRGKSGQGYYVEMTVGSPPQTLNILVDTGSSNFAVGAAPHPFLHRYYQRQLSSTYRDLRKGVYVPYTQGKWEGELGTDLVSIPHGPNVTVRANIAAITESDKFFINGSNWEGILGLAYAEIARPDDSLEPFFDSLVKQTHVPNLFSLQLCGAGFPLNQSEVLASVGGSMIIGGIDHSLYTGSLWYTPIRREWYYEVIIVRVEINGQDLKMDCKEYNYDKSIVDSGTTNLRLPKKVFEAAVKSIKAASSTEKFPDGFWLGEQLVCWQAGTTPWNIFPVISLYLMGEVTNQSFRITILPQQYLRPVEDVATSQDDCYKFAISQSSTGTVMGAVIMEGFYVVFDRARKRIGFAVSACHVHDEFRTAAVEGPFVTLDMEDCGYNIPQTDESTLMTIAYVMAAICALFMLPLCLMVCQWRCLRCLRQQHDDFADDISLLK
Assay type: cell-based
Procedure: The compounds were investigated in accordance with the test given hereinafter.
Cellular Aβ-Lowering Assay:
Human HEK293 cells which are stably transfected with a vector expressing a cDNA of the human APP wt gene (APP695) were used to assess the potency of the compounds in a cellular assay. The cells were seeded in 96-well microtiter plates in cell culture medium (Iscove, plus 10% (v/v) fetal bovine serum, glutamine, penicillin/streptomycin) to about 80% confluence and the compounds were added at a 10× concentration in 1/10 volume of medium without FCS containing 8% DMSO (final concentration of DMSO was kept at 0.8% v/v). After 18-20 hrs incubation at 37° C. and 5% CO2 in a humidified incubator the culture supernatant was harvested for the determination of Aβ40 concentrations. 96 well ELISA plates (e.g., Nunc MaxiSorb) were coated with monoclonal antibody which specifically recognize the C-terminal end of Aβ40 (Brockhaus et al., NeuroReport 9; 1481-1486; 1998). After blocking of non-specific binding sites with e.g. 1% BSA and washing, the culture supernatants were added in suitable dilutions together with a horseradish peroxidase-coupled Aβ detection antibody (e.g., antibody 4G8, Senetek, Maryland Heights, Mo.) and incubated for 5 to 7 hrs. Subsequently the wells of the microtiter plate were washed extensively with Tris-buffered saline containing 0.05% Tween 20 and the assay was developed with tetramethylbenzidine/H2O2 in citric acid buffer. After stopping the reaction with one volume 1 N H2SO4 the reaction was measured in an ELISA reader at 450 nm wavelength. The concentrations of Aβ in the culture supernatants were calculated from a standard curve obtained with known amounts of pure Aβ peptide.
Molecule `CC(C)CCC[C@@H](C)[C@H]1CC[C@H]2[C@@H]3CC=C4C[C@@H](OC(=O)CCC(=O)NCCCC[C@H](NC(=O)[C@H]5CCCN5C(=O)[C@H](CCC(=O)O)NC(=O)[C@H](C)NC(=O)[C@@H](NC(=O)C[C@H](O)[C@H](CC(C)C)NC(=O)[C@H](CC(N)=O)NC(=O)[C@@H](NC(=O)[C@H](CCC(=O)O)NC(=O)CCOCCOCCOCCOCCNC(=O)[C@H](CC(C)C)NC(=O)[C@@H]5CCCN5C(=O)[C@H](CCCCN)NC(=O)[C@H](Cc5ccccc5)NC(=O)[C@H](Cc5ccc(O)cc5)NC(=O)[C@@H]5CCCN5C(=O)[C@@H](N)Cc5ccc(O)cc5)C(C)C)C(C)C)C(N)=O)CC[C@]4(C)[C@H]3CC[C@]12C` [Example 34, Tyr-Pro-Tyr-Phe-Lys-Pro-Leu-PEG(4)-Glu-Val-Asn-Sta-Val-Ala-Glu-DPro-Lys(Chol)-NH2] (H-YPYFKPL[PEG4]EVN[Sta]VAE[dP]K(Succinyl(4-O-cholesteryl))-NH2) has an IC50 of 0.0235 nM.
`CC[C@H](C)[C@H](NC(=O)[C@H](Cc1ccccc1)NC(=O)[C@H](Cc1ccc(O)cc1)NC(=O)[C@@H]1CCCN1C(=O)[C@@H](N)Cc1ccc(O)cc1)C(=O)N1CCC[C@H]1C(=O)N[C@@H](CC(C)C)C(=O)N[C@@H](CCCCN)C(=O)NCC(=O)NCC(=O)N[C@@H](CCC(=O)O)C(=O)N[C@H](C(=O)N[C@@H](CC(N)=O)C(=O)N[C@@H](CC(C)C)[C@@H](O)CC(=O)N[C@H](C(=O)N[C@@H](C)C(=O)N[C@@H](CCC(=O)O)C(=O)N1CCC[C@@H]1C(=O)N[C@@H](CCCCNC(=O)CCC(=O)O[C@H]1CC[C@@]2(C)C(=CC[C@H]3[C@@H]4CC[C@H]([C@H](C)CCCC(C)C)[C@@]4(C)CC[C@@H]32)C1)C(N)=O)C(C)C)C(C)C` [Example 40, Tyr-Pro-Tyr-Phe-Ile-Pro-Leu-Lys-Gly-Gly-Glu-Val-Asn-Sta-Val-Ala-Glu-DPro-Lys(Chol)-NH2] was tested, and the IC50 was 0.0235 nM.
`CC[C@H](C)[C@H](NC(=O)[C@H](Cc1ccccc1)NC(=O)[C@H](Cc1ccc(O)cc1)NC(=O)[C@@H]1CCCN1C(=O)[C@@H](N)CCCCN)C(=O)N1CCC[C@H]1C(=O)N[C@@H](CC(C)C)C(=O)NCC(=O)N[C@H](CCCCN)C(=O)NCC(=O)N[C@@H](CCC(=O)O)C(=O)N[C@H](C(=O)N[C@@H](CC(N)=O)C(=O)N[C@@H](CC(C)C)[C@@H](O)CC(=O)N[C@H](C(=O)N[C@@H](C)C(=O)N[C@@H](CCC(=O)O)C(=O)N1CCC[C@@H]1C(=O)N[C@@H](CCCCNC(=O)CCC(=O)O[C@H]1CC[C@@]2(C)C(=CC[C@H]3[C@@H]4CC[C@H]([C@H](C)CCCC(C)C)[C@@]4(C)CC[C@@H]32)C1)C(N)=O)C(C)C)C(C)C` [Example 48, Lys-Pro-Tyr-Phe-Ile-Pro-Leu-Gly-DLys-Gly-Glu-Val-Asn-Sta-Val-Ala-Glu-DPro-Lys(Chol′estert)-NH2] (H-KPYFIPLG[dK]GEVN[Sta]VAE[dP]K(Succinyl(4-O-cholesteryl))-NH2) was tested, and the IC50 was 0.02 nM.
With `CC[C@H](C)[C@H](NC(=O)[C@H](Cc1ccccc1)NC(=O)[C@H](Cc1ccc(O)cc1)NC(=O)[C@@H]1CCCN1C(=O)[C@@H](N)Cc1ccc(O)cc1)C(=O)N1CCC[C@H]1C(=O)N[C@@H](CC(C)C)C(=O)NCC(=O)N[C@H](C)C(=O)NCC(=O)N[C@@H](CCC(=O)O)C(=O)N[C@H](C(=O)N[C@@H](CC(N)=O)C(=O)N[C@@H](CC(C)C)[C@@H](O)CC(=O)N[C@H](C(=O)N[C@@H](C)C(=O)N[C@@H](CCC(=O)O)C(=O)N1CCC[C@@H]1C(=O)N[C@@H](CCCCNC(=O)CCC(=O)O[C@H]1CC[C@@]2(C)C(=CC[C@H]3[C@@H]4CC[C@H]([C@H](C)CCCC(C)C)[C@@]4(C)CC[C@@H]32)C1)C(N)=O)C(C)C)C(C)C` [Example 53, Tyr-Pro-Tyr-Phe-Ile-Pro-Leu-Gly-DAla-Gly-Glu-Val-Asn-Sta-Val-Ala-Glu-DPro-Lys(Chol′ester′)-NH2] the IC50 was 0.02 nM.
Molecule `CC[C@H](C)[C@H](NC(=O)[C@H](Cc1ccccc1)NC(=O)[C@H](Cc1ccc(O)cc1)NC(=O)[C@@H]1CCCN1C(=O)[C@@H](N)Cc1ccc(O)cc1)C(=O)N1CCC[C@H]1C(=O)N[C@@H](CC(C)C)C(=O)N[C@@H](CO)C(=O)NCC(=O)NCC(=O)N[C@@H](CCC(=O)O)C(=O)N[C@H](C(=O)N[C@@H](CC(N)=O)C(=O)N[C@@H](CC(C)C)[C@@H](O)CC(=O)N[C@H](C(=O)N[C@@H](C)C(=O)N[C@@H](CCC(=O)O)C(=O)N1CCC[C@@H]1C(=O)N[C@@H](CCCCNC(=O)CCC(=O)O[C@H]1CC[C@@]2(C)C(=CC[C@H]3[C@@H]4CC[C@H]([C@H](C)CCCC(C)C)[C@@]4(C)CC[C@@H]32)C1)C(N)=O)C(C)C)C(C)C` [Example 54, Tyr-Pro-Tyr-Phe-Ile-Pro-Leu-Ser-Gly-Gly-Glu-Val-Asn-Sta-Val-Ala-Glu-DPro-Lys(Chol′ester′)-NH2] (H-YPYFIPLSGGEVN[Sta]VAE[dP]K(Succinyl(4-O-cholesteryl))-NH2) has an IC50 of 0.052 nM.
